Measured values as given in PubChem BioAssay AID330 (DTP/NCI, 2004).
Values joined by “and” are separate entries in the source; they are usually repeats but may differ in a detail not shown here. Equal entries are not always repeated. Toxic doses and inconclusive results are not listed. Rule for the calls: active = survival T/C of 150% or more; inactive = T/C below 125% in these data.

Test system: P388 leukemia ip, CD2F1 mice, survival T/C
Experiment: NCI In Vivo Anticancer Drug Screen. Data for tumor model P388 Leukemia (intraperitoneal) in CD2F1 (CDF1) mice
Conditions: endpoint: median survival time, higher = longer survival
Procedure, shortened: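 Mice carrying the transplanted tumor received test compound or vehicle. Survival was recorded in each group, and the value is the treated-group measurement divided by that of the vehicle-treated control group.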

[1] = dose: 60.0 mg/kg/injection, schedule: Q01DX005 (ip), vehicle: saline
[2] = dose: 120.0 mg/kg/injection, schedule: Q01DX005 (ip), vehicle: saline
[3] = dose: 100.0 mg/kg/injection, schedule: Q04DX002 (ip), vehicle: saline
[4] = dose: 200.0 mg/kg/injection, schedule: Q04DX002 (ip), vehicle: saline
[5] = dose: 400.0 mg/kg/injection, schedule: Q04DX002 (ip), vehicle: saline
[6] = dose: 50.0 mg/kg/injection, schedule: Q01DX009 (ip), vehicle: Klucel (hydroxypropylcellulose) (HPC)
[7] = dose: 100.0 mg/kg/injection, schedule: Q01DX009 (ip), vehicle: Klucel (hydroxypropylcellulose) (HPC)
[8] = dose: 200.0 mg/kg/injection, schedule: Q01DX009 (ip), vehicle: Klucel (hydroxypropylcellulose) (HPC)
[9] = dose: 12.5 mg/kg/injection, schedule: Q04DX003 (ip), vehicle: saline
[10] = dose: 25.0 mg/kg/injection, schedule: Q04DX003 (ip), vehicle: saline
[11] = dose: 6.25 mg/kg/injection, schedule: Q01DX009 (ip), vehicle: water
[12] = dose: 12.5 mg/kg/injection, schedule: Q01DX009 (ip), vehicle: water
[13] = dose: 25.0 mg/kg/injection, schedule: Q01DX009 (ip), vehicle: water
[14] = dose: 50.0 mg/kg/injection, schedule: Q01DX009 (ip), vehicle: water
[15] = dose: 50.0 mg/kg/injection, schedule: Q01DX005 (ip), vehicle: saline
[16] = dose: 100.0 mg/kg/injection, schedule: Q01DX005 (ip), vehicle: saline
[17] = dose: 50.0 mg/kg/injection, schedule: Q01DX005 (ip), vehicle: saline with Tween-80
[18] = dose: 100.0 mg/kg/injection, schedule: Q01DX005 (ip), vehicle: saline with Tween-80
[19] = dose: 200.0 mg/kg/injection, schedule: Q01DX005 (ip), vehicle: saline with Tween-80
[20] = dose: 25.0 mg/kg/injection, schedule: Q01DX009 (ip), vehicle: saline with Tween-80
[21] = dose: 50.0 mg/kg/injection, schedule: Q01DX009 (ip), vehicle: saline with Tween-80
[22] = dose: 100.0 mg/kg/injection, schedule: Q01DX009 (ip), vehicle: saline with Tween-80
[23] = dose: 50.0 mg/kg/injection, schedule: Q01DX005 (ip), vehicle: Klucel (hydroxypropylcellulose) (HPC)
[24] = dose: 100.0 mg/kg/injection, schedule: Q01DX005 (ip), vehicle: Klucel (hydroxypropylcellulose) (HPC)
[25] = dose: 200.0 mg/kg/injection, schedule: Q01DX005 (ip), vehicle: Klucel (hydroxypropylcellulose) (HPC)

Measured: T/C

CN1CCC(O)(c2ccccc2)C(Br)C1 (stereo not given)
inactive: dose: 30.0 mg/kg/injection, schedule: Q01DX005 (ip), vehicle: saline 100 % of control and 106 % of control | [1] 100 % of control and 105 % of control and 110 % of control | [2] 100 % of control and 116 % of control

CCCCNc1ncc(S(=O)(=O)Cc2ccc3c(c2)OCO3)c(N)n1
inactive: [3] 94 % of control | [4] 100 % of control | [5] 90 % of control

O=C1CSC(c2cc(Cl)ccc2[N+](=O)[O-])N1c1nncs1 (stereo not given)
inactive: dose: 100.0 mg/kg/injection, schedule: Q04DX002 (ip), vehicle: saline with Tween-80 87 % of control | dose: 200.0 mg/kg/injection, schedule: Q04DX002 (ip), vehicle: saline with Tween-80 87 % of control | dose: 400.0 mg/kg/injection, schedule: Q04DX002 (ip), vehicle: saline with Tween-80 88 % of control

COc1ccccc1N=Cc1ccc(C=Nc2ccccc2OC)cc1
inactive: [6] 97 % of control | [7] 98 % of control | [8] 101 % of control and 88 % of control

C/[N+]([O-])=C1\C(C2COC(C)(C)O2)OC2OC(C)(C)OC12 (stereo not given)
inactive: [3] 97 % of control | [4] 107 % of control | [5] 105 % of control

CC1(C)N=C(N)N=C(N)N1c1ccc(OCCCOc2ccc(S(=O)(=O)F)cc2)c(Cl)c1
inactive: [9] 120 % of control | [10] 115 % of control

COc1ccc(NN=O)cn1
inactive: dose: 1.56 mg/kg/injection, schedule: Q01DX009 (ip), vehicle: water 100 % of control | dose: 3.12 mg/kg/injection, schedule: Q01DX009 (ip), vehicle: water 100 % of control and 105 % of control | [11] 99 % of control and 106 % of control | [12] 106 % of control and 107 % of control and 98 % of control | [13] 115 % of control and 122 % of control and 97 % of control | [14] 114 % of control and 122 % of control | dose: 100.0 mg/kg/injection, schedule: Q01DX009 (ip), vehicle: water 122 % of control | dose: 200.0 mg/kg/injection, schedule: Q01DX009 (ip), vehicle: water 121 % of control

C=C(C)CC(N)C(=O)O (stereo not given)
inactive: [15] 103 % of control | [16] 100 % of control | dose: 200.0 mg/kg/injection, schedule: Q01DX005 (ip), vehicle: saline 99 % of control

CC(CN(C)C)C(=O)C(=Cc1ccccc1)C(=O)C(C)CN(C)C (stereo not given)
inactive: [1] 100 % of control | [2] 108 % of control | dose: 240.0 mg/kg/injection, schedule: Q01DX005 (ip), vehicle: saline 102 % of control

CCCCCC(=O)C(C)(c1nc2nnc(N)n2[nH]c1=O)c1nc2nnc(N)n2[nH]c1=O
inactive: [17] 93 % of control | [18] 93 % of control | [19] 94 % of control

CC(C)C12CC(COCc3ccccc3)OC1=NC(=O)NC2=O (stereo not given)
inactive: [6] 112 % of control | [7] 103 % of control | [8] 94 % of control

CC12CCC3C(CCC4(O)C=CCCC34C=O)C1(O)CC(O)C2c1ccc(=O)oc1 (stereo not given)
inactive: [20] 97 % of control | [21] 91 % of control | [22] 91 % of control | dose: 200.0 mg/kg/injection, schedule: Q01DX009 (ip), vehicle: saline with Tween-80 91 % of control

O=S1(=O)C(=C(c2ccccc2)c2ccccc2)S(=O)(=O)c2ccccc21
inactive: dose: 60.0 mg/kg/injection, schedule: Q01DX005 (ip), vehicle: saline with Tween-80 104 % of control | dose: 120.0 mg/kg/injection, schedule: Q01DX005 (ip), vehicle: saline with Tween-80 96 % of control | dose: 240.0 mg/kg/injection, schedule: Q01DX005 (ip), vehicle: saline with Tween-80 102 % of control

COC(=O)CCCCCCCCCCCCCC1C=CCC1 (stereo not given)
inactive: dose: 100.0 mg/kg/injection, schedule: Q01DX001 (ip), vehicle: saline 101 % of control | dose: 200.0 mg/kg/injection, schedule: Q01DX001 (ip), vehicle: saline 100 % of control | dose: 400.0 mg/kg/injection, schedule: Q01DX001 (ip), vehicle: saline 101 % of control

NCCNCC[OH2+].NCCNCC[OH2+].O=[N+]([O-])[O-].[Cu+2]
inactive: dose: 3.12 mg/kg/injection, schedule: Q01DX009 (ip), vehicle: Klucel (hydroxypropylcellulose) (HPC) 98 % of control | dose: 6.25 mg/kg/injection, schedule: Q01DX009 (ip), vehicle: Klucel (hydroxypropylcellulose) (HPC) 111 % of control | dose: 6.25 mg/kg/injection, schedule: Q04DX003 (ip), vehicle: saline 97 % of control | dose: 12.5 mg/kg/injection, schedule: Q01DX009 (ip), vehicle: Klucel (hydroxypropylcellulose) (HPC) 93 % of control | [9] 100 % of control | [10] 86 % of control

COc1cc2c(cc1Cc1ccc3c(c1)OCO3)OCO2
inactive: [23] 94 % of control | [24] 92 % of control | [25] 89 % of control

[Se]c1nccn2cnnc12
inactive: dose: 1.56 mg/kg/injection, schedule: Q01DX001 (ip), vehicle: saline 99 % of control and 101 % of control | dose: 3.12 mg/kg/injection, schedule: Q01DX001 (ip), vehicle: saline 100 % of control and 96 % of control | dose: 6.25 mg/kg/injection, schedule: Q01DX001 (ip), vehicle: saline 99 % of control and 105 % of control | dose: 12.5 mg/kg/injection, schedule: Q01DX001 (ip), vehicle: saline 103 % of control and 109 % of control

CC(C)NCC(O)c1cc(Br)c(Br)s1 (stereo not given)
inactive: dose: 50.0 mg/kg/injection, schedule: Q01DX009 (ip), vehicle: saline 98 % of control | dose: 100.0 mg/kg/injection, schedule: Q01DX009 (ip), vehicle: saline 102 % of control

CCCN(C)C12CN3CN(CN(C3)C1)C2
inactive: dose: 100.0 mg/kg/injection, schedule: Q04DX003 (ip), vehicle: saline 106 % of control | dose: 200.0 mg/kg/injection, schedule: Q04DX003 (ip), vehicle: saline 95 % of control | dose: 400.0 mg/kg/injection, schedule: Q04DX003 (ip), vehicle: saline 100 % of control

O=C(Oc1cc(O)cc2[o+]c(-c3ccc(O)cc3)c(O)cc12)c1ccccc1
inactive: [23] 96 % of control | [24] 109 % of control | [25] 96 % of control

CC(C)CC1[NH][Sn]2([NH]C(CC(C)C)C(=O)[O]2)[O]C1=O (stereo not given)
inactive: dose: 6.25 mg/kg/injection, schedule: Q01DX005 (ip), vehicle: Klucel (hydroxypropylcellulose) (HPC) 104 % of control | dose: 12.5 mg/kg/injection, schedule: Q01DX005 (ip), vehicle: Klucel (hydroxypropylcellulose) (HPC) 105 % of control | dose: 25.0 mg/kg/injection, schedule: Q01DX005 (ip), vehicle: Klucel (hydroxypropylcellulose) (HPC) 104 % of control

O=[N+]([O-])c1ccc(N/N=C(\CBr)c2ccccc2)c([N+](=O)[O-])c1
inactive: dose: 100.0 mg/kg/injection, schedule: Q01DX001 (ip), vehicle: saline with Tween-80 91 % of control | dose: 200.0 mg/kg/injection, schedule: Q01DX001 (ip), vehicle: saline with Tween-80 87 % of control | dose: 400.0 mg/kg/injection, schedule: Q01DX001 (ip), vehicle: saline with Tween-80 87 % of control

COc1c2occc2c(S(N)(=O)=O)c2ccc(=O)oc12
inactive: [20] 106 % of control | [21] 103 % of control | [22] 106 % of control

O=C1c2ccccc2C(=O)N1CC[P+](C1CCCCC1)(C1CCCCC1)C1CCCCC1
inactive: dose: 0.78 mg/kg/injection, schedule: Q01DX009 (ip), vehicle: saline with Tween-80 110 % of control | dose: 1.56 mg/kg/injection, schedule: Q01DX009 (ip), vehicle: saline with Tween-80 112 % of control | dose: 3.13 mg/kg/injection, schedule: Q01DX009 (ip), vehicle: water 97 % of control | dose: 6.25 mg/kg/injection, schedule: Q01DX009 (ip), vehicle: saline with Tween-80 116 % of control | [11] 118 % of control | [12] 118 % of control | [13] 118 % of control | [14] 86 % of control

CCN(CC)Cc1ccccc1CO
inactive: [15] 110 % of control | [16] 106 % of control

COC1(c2ccccc2)C2CCCCC2C2CCCCC21 (stereo not given)
inactive: [17] 100 % of control | [18] 98 % of control | [19] 100 % of control
